Where two headings read alike, the source gives them in different places.
Key:
[1] = system: Saccharomyces Cerevisiae (KCTC 7904); test: Bio-germanium content inoculated into the yeast by content of germanium in the solution; format: cell-based; settings: KCTC7904; for Bio-germanium content inoculated into the yeast: 20 hours, pH 10, 40° C.
[2] = Solubility of the germanium source; format: physicochemical; settings: 25° C.
Protocol: The solution of Sodium Metagermanate (Na2GeO3) was prepared by dissolving sodium carbonate (Na2CO3, Kanto, Japan) in water, adding germanium dioxide (GeO2, PPM GmbH, Germany) at the equivalent ratio of 1:1 against the said sodium carbonate, and sterilized the obtained solution.

[3] = system: yeast GP-01 (KCTC11399BP); test: Germanium inoculated into the yeast by pH, temperature and surfactant concentration; format: cell-based, Saccharomyces Cerevisiae; settings: 5,000 ppm germanium, ratio 1:0.5, 20 hours
Protocol: (§1) In order to determine the content of bio-germanium in the yeast GP-01, 1 g of the cultivated and dried yeast GP-01 was added in 30 ml of nitric acid. The obtained sample was heated to be decomposed. After adjusting pH value to 6, 1 ml of the sample was mixed with 1 ml of phenylfluorone and 1 ml of cyclo nucleic acid. The obtained sample was stationary for 30 hours at 30° C. and then determined the content of germanium in the yeast GP-01 by using UV spectrophotometer at 525 nm.
The broth containing the ethanol-resistant yeast GP-01 as prepared in the Example 1 was centrifuged to collect the yeast. At the ratio of 1:0.5, the collected yeast was added in the solution of sodium metagermanate (Na2GeO3) having 5,000 ppm of germanium. After adding surfactant (Twin-80), the obtained solution was cultivated for 20 hours by various conditions for pH, temperature or the broth containing germanium.
The pH was regulated by using 1N NaOH, and a number of tests were repeatedly performed under different temperatures and concentrations of surfactant.
When measuring the content of germanium, the broth without adding the surfactant was used as a control.
The measurement of content of bio-germanium in the yeast GP-01 (KCTC11399BP) of the present invention was made by the same method as Example 2.

[4] = system: yeast GP-01 (KCTC11399BP); test: Bio-germanium content inoculated into the yeast by content of germanium in the solution; format: cell-based, Saccharomyces Cerevisiae; settings: for Bio-germanium content inoculated into the yeast: 20 hours, pH 10, 40° C.
Protocol: The broth medium containing the mutated Saccharomyces Cerevisiae, yeast GP-01 (KCTC11399BP), was centrifuged to collect the palletized yeast. The collected pelletized yeast was added in each of the solutions of sodium metagermanate (Na2GeO3) with different concentrations of germanium. The prepared solutions were cultivated for 20 hours at pH 10 and temperature 40° C.
as §1, with “nm. […]” for “nm.”

[5] = system: yeast GP-01 (KCTC 11399BP); test: Bio-germanium content in yeast by mixing ratio of yeast and Ge solution; format: cell-based, Saccharomyces Cerevisiae; settings: for Bio-germanium content in yeast GP-01: 20 hours, pH 10, 40° C.
Protocol: as §1
The broth containing the ethanol-resistant yeast GP-01 as prepared in the Example 1 was centrifuged to collect the yeast. […] The obtained solutions were cultivated for 20 hours at pH 10 and temperature 40° C.
Also, as a control, the same procedure described in Example 3 was performed, except that a solution of (inorganic) germanium dioxide (GeO2) was used instead of sodium metagermanate (Na2GeO3).
The contents of germanium in the yeast GP-01 (KCTC 11399BP) was measured by the same method as Example 2.

[6] = system: yeast GP-01 (KCTC 11399BP)
Protocol: (§2) In order to examine the ethanol resistance of the obtained yeast GP-01, the ethanol, which is the inhibitor of the growth, was added by the concentrations and the status of the growth of the yeast was checked.

[7] = system: Saccharomyces Cerevisiae (KCTC 7904); settings: KCTC7904
Protocol: as §2

[8] = 25° C.; cited from earlier work
[9] = germanium in the solution 3,000 ppm
[10] = germanium in the solution 4,000 ppm
[11] = germanium in the solution 5,000 ppm
[12] = germanium in the solution 10,000 ppm
[13] = germanium in the solution 15,000 ppm
[14] = mixing ratio yeast GP-01:Ge solution 1:0.2
[15] = mixing ratio yeast GP-01:Ge solution 1:0.5
[16] = mixing ratio yeast GP-01:Ge solution 1:1
[17] = mixing ratio yeast GP-01:Ge solution 1:2
[18] = mixing ratio yeast GP-01:Ge solution 1:3
[19] = germanium in the solution 1,000 ppm
[20] = germanium in the solution 2,000 ppm

[Na+].[Na+].[O]=[Ge]([O-])[O-] [Na2GeO3 solution, sodium metagermanate]
Yield (%) of germanium inoculated [1, 9]: 32%
Bio-germanium content inoculated into the yeast [1, 9]: 950 ppm
Yield (%) of germanium inoculated [1, 10]: 38%
Bio-germanium content inoculated into the yeast [1, 10]: 1,500 ppm
Yield (%) of germanium inoculated [1, 11]: 47%
Bio-germanium content inoculated into the yeast [1, 11]: 2,370 ppm
Yield (%) of germanium inoculated [1, 12]: 45%
Bio-germanium content inoculated into the yeast [1, 12]: 4,500 ppm
Yield (%) of germanium inoculated [1, 13]: 38%
Bio-germanium content inoculated into the yeast [1, 13]: 5,730 ppm
solubility [2]: 500 g/L
Bio-germanium inoculated ([3]; Control: broth without adding the surfactant): 1,720 ppm
Bio-germanium inoculated ([3]; pH 4.0): 2,190 ppm
Bio-germanium inoculated ([3]; pH 5.0): 3,254 ppm
Bio-germanium inoculated ([3]; pH 6.0): 5,320 ppm
Bio-germanium inoculated ([3]; pH 6.5): 5,790 ppm
Bio-germanium inoculated ([3]; pH 7.0): 9,750 ppm
Bio-germanium inoculated ([3]; pH 8.0): 10,700 ppm
Bio-germanium inoculated ([3]; pH 9.0): 15,200 ppm
Bio-germanium inoculated ([3]; pH 10.0): 16,300 ppm
Bio-germanium inoculated ([3]; pH 11.0): 9,320 ppm
Bio-germanium inoculated ([3]; surfactant Twin-80 0.1 wt %): 8,743 ppm
Bio-germanium inoculated ([3]; surfactant Twin-80 0.2 wt %): 16,250 ppm
Bio-germanium inoculated ([3]; surfactant Twin-80 0.3 wt %): 12,530 ppm
Bio-germanium inoculated ([3]; surfactant Twin-80 0.4 wt %): 9,670 ppm
Bio-germanium inoculated ([3]; surfactant Twin-80 0.5 wt %): 7,624 ppm
Bio-germanium inoculated ([3]; surfactant Twin-80 0.6 wt %): 5,670 ppm
Bio-germanium inoculated ([3]; surfactant Twin-80 0.7 wt %): 4,830 ppm
Bio-germanium inoculated ([3]; surfactant Twin-80 0.8 wt %): 2,700 ppm
Bio-germanium inoculated ([3]; temperature 20 ° C.): 3,102 ppm
Bio-germanium inoculated ([3]; temperature 30 ° C.): 9,648 ppm
Bio-germanium inoculated ([3]; temperature 35 ° C.): 13,250 ppm
Bio-germanium inoculated ([3]; temperature 40 ° C.): 14,700 ppm
Bio-germanium inoculated ([3]; temperature 45 ° C.): 8,350 ppm
Bio-germanium inoculated ([3]; temperature 50 ° C.): 4,564 ppm
Yield (%) of germanium inoculated [4, 9]: 155%
Bio-germanium content inoculated into the yeast [4, 9]: 4,640 ppm
Yield (%) of germanium inoculated [4, 10]: 171%
Bio-germanium content inoculated into the yeast [4, 10]: 6,840 ppm
Yield (%) of germanium inoculated [4, 11]: 194%
Bio-germanium content inoculated into the yeast [4, 11]: 9,700 ppm
Yield (%) of germanium inoculated [4, 12]: 130%
Bio-germanium content inoculated into the yeast [4, 12]: 13,000 ppm
Yield (%) of germanium inoculated [4, 13]: 110%
Bio-germanium content inoculated into the yeast [4, 13]: 16,500 ppm
increase of content of bio-germanium versus germanium dioxide ([5]; Na2GeO3 solution compared with germanium dioxide, Table 3): 2-4 times
Bio-germanium content in yeast GP-01 [5, 14]: 4,350 ppm
Bio-germanium content in yeast GP-01 [5, 15]: 14,800 ppm
Bio-germanium content in yeast GP-01 [5, 16]: 12,600 ppm
Bio-germanium content in yeast GP-01 [5, 17]: 9,760 ppm
Bio-germanium content in yeast GP-01 [5, 18]: 8,720 ppm

CCO [ethanol]
Growth status OD(660 nm, 1/20) ([6]; GP-01 1st investigation, ethanol 6.0 % v/v): 0.15
Growth status OD(660 nm, 1/20) ([6]; GP-01 1st investigation, ethanol 8.0 % v/v): 0.14
Growth status OD(660 nm, 1/20) ([6]; GP-01 1st investigation, ethanol 10.0 % v/v): 0.16
Growth status OD(660 nm, 1/20) ([6]; GP-01 1st investigation, ethanol 15.0 % v/v): 0.12
Growth status OD(660 nm, 1/20) ([6]; GP-01 2nd investigation, ethanol 6.0 % v/v): 0.14
Growth status OD(660 nm, 1/20) ([6]; GP-01 2nd investigation, ethanol 8.0 % v/v): 0.20
Growth status OD(660 nm, 1/20) ([6]; GP-01 2nd investigation, ethanol 10.0 % v/v): 0.19
Growth status OD(660 nm, 1/20) ([6]; GP-01 2nd investigation, ethanol 15.0 % v/v): 0.08
Growth status OD(660 nm, 1/20) ([6]; GP-01 3rd investigation, ethanol 6.0 % v/v): 0.20
Growth status OD(660 nm, 1/20) ([6]; GP-01 3rd investigation, ethanol 8.0 % v/v): 0.23
Growth status OD(660 nm, 1/20) ([6]; GP-01 3rd investigation, ethanol 10.0 % v/v): 0.24
Growth status OD(660 nm, 1/20) ([6]; GP-01 3rd investigation, ethanol 15.0 % v/v): 0.15
Growth status OD(660 nm, 1/20) ([7]; ethanol 6.0 % v/v): 0.07
Growth status OD(660 nm, 1/20) ([7]; ethanol 8.0 % v/v): 0.06
Growth status OD(660 nm, 1/20) ([7]; ethanol 10.0 % v/v): 0.05

germanium dioxide [GeO2 solution, reference compound]
Yield (%) of germanium inoculated [1, 19]: 78%
Bio-germanium content inoculated into the yeast [1, 19]: 780 ppm
Yield (%) of germanium inoculated [1, 20]: 44%
Bio-germanium content inoculated into the yeast [1, 20]: 870 ppm
Yield (%) of germanium inoculated [1, 9]: 33%
Bio-germanium content inoculated into the yeast [1, 9]: 980 ppm
Yield (%) of germanium inoculated [1, 10]: 36%
Bio-germanium content inoculated into the yeast [1, 10]: 1,430 ppm
Yield (%) of germanium inoculated [1, 11]: 30%
Bio-germanium content inoculated into the yeast [1, 11]: 1,500 ppm
solubility [8]: 5.2 g/L
Yield (%) of germanium inoculated [4, 19]: 87%
Bio-germanium content inoculated into the yeast [4, 19]: 870 ppm
Yield (%) of germanium inoculated [4, 20]: 89%
Bio-germanium content inoculated into the yeast [4, 20]: 1,786 ppm
Yield (%) of germanium inoculated [4, 9]: 89%
Bio-germanium content inoculated into the yeast [4, 9]: 2,670 ppm
Yield (%) of germanium inoculated [4, 10]: 96%
Bio-germanium content inoculated into the yeast [4, 10]: 3,850 ppm
Yield (%) of germanium inoculated [4, 11]: 95%
Bio-germanium content inoculated into the yeast [4, 11]: 4,753 ppm
Bio-germanium content in yeast GP-01 [5, 14]: 1,920 ppm
Bio-germanium content in yeast GP-01 [5, 15]: 5,670 ppm
Bio-germanium content in yeast GP-01 [5, 16]: 4,780 ppm
Bio-germanium content in yeast GP-01 [5, 17]: 2,500 ppm
Bio-germanium content in yeast GP-01 [5, 18]: 1,700 ppm

Reference: US8569039B2, “Ethanol resistance Saccharomyces cerevisiae GP-01 by protoplast fusion, method for manufacturing thereof, method for manufacturing yeast containing high content of bio organic germanium by using Saccharomyces cerevisiae GP-01 and high water soluble sodium metagermanate as a germanium source” (Geranti Pharm Ltd., priority 2008, dated 2013)
